# Experimental data published in US6596692B1, “Substance P analogs for the treatment of cancer” (Dabur Research Foundation, priority 2000, dated 2003).
# Non-standard residues stand in square brackets, D forms with d. Residues, ends and D or L forms follow the SMILES beside them. Ac5c = NC1(C(=O)O)CCCC1
# Legend:
# [1] = test system: human colon adenocarcinoma (PTC) xenografts; experiment: In vivo anti tumor activity on PTC tumor xenografts; set-up: species or system Balb/c athymic nude mice; conditions: 4.25 μg intravenously twice a day; for Tumor volumes, Average: group average
# Description: In vivo Anti Tumor Activity of Substance P Analogs on PCT Tumor Xenografts Protocol The anti tumor activity of substance P analogs was studied in human colon adenocarcinoma (PTC) xenografts in nude mice. PTC tumor xenografts were grown in Balb/c athymic nude mice by subcutaneous inoculation of a single cell suspension of PTC cells (15×10^6 cells/100 μL). The tumor bearing animals were divided into 4 groups of three animals each including one group comprising untreated control animals. Treatment with Substance P Receptor Antagonists was initiated when the average tumor volumes, as measured using a vernier caliper, were between 400-800 mm^3. SEQ ID NO:5, SEQ ID NO:7 and SEQ ID NO:8 peptides were prepared at a concentration of 42.5 μg/ml and intravenously administered to the assigned group of tumor bearing animals at a dose of 4.25 μg/100 μL twice a day so that the total dose of 8.5 μg was administered to each animal. The treatment was continued for a period of 10 days. The antitumor activity of the compounds was monitored by measuring 15 tumor volumes every fourth day using the formula W*W*L*0.4 (W=smaller diameter, L=larger diameter). The percentage inhibition of tumor growth was calculated using. the formula (1−tumor volume-treated/ tumor volume-control)×100.
# MCF7 (breast) = experiment: In vitro cytotoxic activity, MTT assay, 72 hours; assay type: cell-based, human; conditions: MCF-7, 100 pM
# Description: (§1) In vitro Cytotoxic Activity of the Novel Synthesized Peptide Analogs
# (§2) The cytotoxic activity of synthesized peptides was tested on six human tumor cell lines namely MCF7 (breast), U373 (glioblastoma), PTC, (colon), L132 (lung), Su.86.86 (pancreas), and KB (oral). The tumor cells were collected at exponential growth phase and resuspended in medium (1.5×10^6 cells/ml in RPMI 1640 containing 10% FBS). 150 μL of medium was added to the wells of a 96-well tissue culture plate (Nunc, Denmark) followed by 30 μl of cell suspension. The plate was left in an incubator (37° C., 5% CO2) overnight. 20 μl of the peptide (100 pM to 10 μM concentration) was added to marked wells of the 96-well plate. Each concentration was plated in triplicate. 20 μl of medium alone was added to control wells while wells without cells served as blanks. A total volume of 200 μL was ensured in each well and plate was left in incubator (37° C., 5% CO2). After 72 hours of incubation an MTT assay was performed and percentage cytotoxicity was calculated with respect to control cells.
# PTC (colon) = experiment: In vitro cytotoxic activity, MTT assay, 72 hours; assay type: cell-based, human
# Description: as §1, §2
# Su.86.86 (pancreas) = experiment: In vitro cytotoxic activity, MTT assay, 72 hours; assay type: cell-based, human; conditions: Su8686, 100 pM
# Description: as §1, §2
compound,measurement,setting,value
"CC(C)C[C@H](NC(=O)[C@@H](Cc1c[nH]c2ccccc12)NC(=O)[C@H](Cc1ccccc1)NC(=O)[C@@H](Cc1c[nH]c2ccccc12)NC(=O)[C@H](CCC(N)=O)NC(=O)[C@@H](Cc1ccccc1)NC(=O)[C@@H]1CCCN1C(=O)[C@H](CCCCN)NC(=O)[C@@H]1CCCN1C(=O)[C@H](N)CCCNC(=N)N)C(=O)NC1(C(N)=O)CCCC1 [SEQ ID NO: 5, D-Arg-Pro-Lys-Pro-D-Phe-Gln-D-Trp-Phe-D-Trp-Leu-Ac5c-NH2] (H-[dR]PKP[dF]Q[dW]F[dW]L[Ac5c]-NH2; N-terminus assumed)","Tumor volumes, animal I",[1]; Day 6,307.8 mm^3
same,"Tumor volumes, animal II",[1]; Day 6,520 mm^3
same,"Tumor volumes, animal III",[1]; Day 6,687.7 mm^3
same,"Tumor volumes, Average",[1]; Day 6,505.1 mm^3
same,"Tumor volumes, animal I",[1]; Day 8,748.8 mm^3
same,"Tumor volumes, animal II",[1]; Day 8,1149.2 mm^3
same,"Tumor volumes, animal III",[1]; Day 8,1411.2 mm^3
same,"Tumor volumes, Average",[1]; Day 8,1103.0 mm^3
same,"Tumor volumes, animal I",[1]; Day 12,2049 mm^3
same,"Tumor volumes, animal II",[1]; Day 12,3080.3 mm^3
same,"Tumor volumes, animal III",[1]; Day 12,3840.0 mm^3
same,"Tumor volumes, Average",[1]; Day 12,2989.7 mm^3
same,"Tumor volumes, animal I",[1]; Day 15,3310 mm^3
same,"Tumor volumes, animal II",[1]; Day 15,3360 mm^3
same,"Tumor volumes, animal III",[1]; Day 15,4480.0 mm^3
same,"Tumor volumes, Average",[1]; Day 15,3716.6 mm^3
same,"Tumor volumes, animal I",[1]; Day 19,3582 mm^3
same,"Tumor volumes, animal II",[1]; Day 19,1465.6 mm^3
same,"Tumor volumes, animal III",[1]; Day 19,3499.2 mm^3
same,"Tumor volumes, Average",[1]; Day 19,2848.9 mm^3
same,"Tumor volumes, animal II",[1]; Day 22,100 mm^3
same,"Tumor volumes, animal III",[1]; Day 22,2560.0 mm^3
same,"Tumor volumes, Average",[1]; Day 22,1330.0 mm^3
same,Percentage cytotoxicity,MCF7 (breast),Nil
same,Percentage cytotoxicity,PTC (colon); 100 pM,Nil
same,Percentage cytotoxicity,PTC (colon); 1 nM,3.1 ± 0.5%
same,Percentage cytotoxicity,Su.86.86 (pancreas),Nil
